pIC50: −log10 of the molar value.
Key:
[1] = Inhibition of HIV1 reverse transcriptase K103N mutant by HeLa-MAGI assay
[2] = molecular target: Reverse transcriptase protein (Human immunodeficiency virus 1, UniProt Q9WJQ2); assay: Inhibition of HIV1 reverse transcriptase K103N mutant by HeLa-MAGI assay

Row | Compound | pIC50 [1] | pIC50 [2]
1 | Cc1cc(N2CC[S+]([O-])CC2)ccc1NC(=O)COc1ccc(Cl)cc1C(=O)c1ccc(C#N)cc1 | 7.36 | –
2 | Cc1c(C(C)(C)C)s/c(=N\S(=O)(=O)c2ccccc2O)n1C [N-[(2Z)-5-tert-butyl-3,4-dimethyl-2,3-dihydro-1,3-thiazol-2-ylidene]-2-hydroxybenzene-1-sulfonamide] | 4.50 | –
3 | CC(C)c1s/c(=N\S(=O)(=O)c2cc(Cl)ccc2C#N)n(C)c1Cl [5-Chloro-N-(4-chloro-5-isopropyl-3-methyl-1,3-thiazol-2(3H)-ylidene)-2-cyanobenzenesulfonamide] | 5.40 | –
4 | Cc1cc(S(N)(=O)=O)ncc1NC(=O)COc1ccc(Cl)cc1C(=O)c1cc(Cl)cc(C#N)c1 | 8.30 | –
5 | Cc1c(C(C)(C)C)s/c(=N\S(=O)(=O)c2cccc([N+](=O)[O-])c2)n1C [3-substituted thiazolidene deriv. 17a] | – | 4.89
6 | Cc1cc(S(N)(=O)=O)ccc1NC(=O)COc1ccc(Cl)cc1C(=O)c1cc(Cl)cc(Br)c1 | 8.21 | –
7 | Cc1c(C(C)C)s/c(=N\S(=O)(=O)c2cccc([N+](=O)[O-])c2)n1C [N-(3,4-Dimethyl-5-isopropyl-1,3-thiazol-2(3H)-ylidene)-3-nitrobenzenesulfonamide] | 4.70 | –
8 | Cc1cc(N2CC[S+]([O-])CC2)ccc1NC(=O)COc1ccc(Cl)cc1C(=O)c1ccccc1C#N | 6.81 | –
9 | Cc1cc(S(N)(=O)=O)ccc1NC(=O)COc1ccc(Cl)cc1C(=O)c1cc(C#N)cc(C(F)(F)F)c1 | 8.96 | –
10 | Cc1ccccc1NC(=O)COc1ccc(Cl)cc1C(=O)c1cc(F)cc(F)c1 | 7.42 | –
11 | Cc1cc(S(N)(=O)=O)ccc1NC(=O)COc1ccc(Cl)cc1C(=O)c1cc(Cl)cc(C#N)c1 [GW678248] | 9.00 | –
12 | CCN(CC)CCCNc1ccc(NC(=O)COc2ccc(Cl)cc2C(=O)c2cc(F)cc(F)c2)c(C)c1 | 7.02 | –
13 | Cc1c(C(C)C)s/c(=N\S(=O)(=O)c2cc(C#N)ccc2C#N)n1C [thiazolidenebenzenesulfonamide deriv.] | 5.40 | –
14 | Cc1cc(S(N)(=O)=O)ccc1NC(=O)COc1ccc(Cl)cc1C(=O)c1cncc(C#N)c1 | 6.85 | –
15 | Cc1cc(C)cc(C(=O)c2cc(Cl)ccc2OCC(=O)Nc2ccc(S(N)(=O)=O)cc2C)c1 | 8.48 | –
16 | CC(C)c1s/c(=N\S(=O)(=O)c2cccc([N+](=O)[O-])c2)n(C)c1C(F)(F)F [N-[(2Z)-3-methyl-5-(propan-2-yl)-4-(trifluoromethyl)-2,3-dihydro-1,3-thiazol-2-ylidene]-3-nitrobenzene-1-sulfonamide] | 4.38 | –
17 | Cc1cc(S(=O)(=O)N(C)C)ccc1NC(=O)COc1ccc(Cl)cc1C(=O)c1cc(F)cc(C(F)(F)F)c1 | 8.22 | –
18 | Cc1cc(NCCCn2ccnc2)ccc1NC(=O)COc1ccc(Cl)cc1C(=O)c1cc(F)cc(F)c1 | 6.80 | –
19 | Cc1cc(S(N)(=O)=O)ccc1NC(=O)COc1ccc(Cl)cc1C(=O)c1cccc(C#N)c1 | 8.82 | –
20 | CNS(=O)(=O)c1ccc(NC(=O)COc2ccc(Cl)cc2C(=O)c2cc(F)cc(C(F)(F)F)c2)c(C)c1 | 8.70 | –
21 | Cc1c(C(C)(C)C)s/c(=N\S(=O)(=O)c2cc(Cl)ccc2N)n1C [2-amino-N-[(2Z)-5-tert-butyl-3,4-dimethyl-2,3-dihydro-1,3-thiazol-2-ylidene]-5-chlorobenzene-1-sulfonamide] | 4.80 | –
22 | CC(C)c1s/c(=N\S(=O)(=O)c2cccc([N+](=O)[O-])c2)n(C)c1Cl [thiazolidenebenzenesulfonamide deriv. 17k] | 5.16 | –
23 | Cc1cc(OCCCS(N)(=O)=O)ccc1NC(=O)COc1ccc(Cl)cc1C(=O)c1cc(F)cc(C(F)(F)F)c1 [GW3011] | 8.40 | –
24 | Cc1cc(S(N)(=O)=O)ccc1NC(=O)COc1ccc(Cl)cc1C(=O)c1cc(Br)cc(C(F)(F)F)c1 | 7.03 | –
25 | Cc1cc(S(N)(=O)=O)ccc1NC(=O)COc1ccc(Cl)cc1C(=O)c1cc(F)cc(C(F)(F)F)c1 [GW4511] | 8.70 | –

Row | Compound | pIC50 [1] | pIC50 [2]
26 | C=Cc1s/c(=N\S(=O)(=O)c2cccc([N+](=O)[O-])c2)n(C)c1C [N-(3,4-Dimethyl-5-vinyl-1,3-thiazol-2(3H)-ylidene)-3-nitrobenzenesulfonamide] | 5.21 | –
27 | Cc1cc(C#N)cc(C(=O)c2cc(Cl)ccc2OCC(=O)Nc2ccc(S(N)(=O)=O)cc2C)c1 | 9.05 | –
28 | Cc1cc(NCCCN2CCCC2)ccc1NC(=O)COc1ccc(Cl)cc1C(=O)c1cc(F)cc(F)c1 | 6.96 | –
29 | Cc1cc(Cl)cc(C(=O)c2cc(Cl)ccc2OCC(=O)Nc2ccc(S(N)(=O)=O)cc2C)c1 | 8.44 | –
30 | Cc1cc(OCCCNC(N)=O)ccc1NC(=O)COc1ccc(Cl)cc1C(=O)c1cc(F)cc(C(F)(F)F)c1 | 8.40 | –
31 | CC(C)c1s/c(=N\S(=O)(=O)c2cc(Cl)ccc2O)n(C)c1Cl [5-chloro-N-[(2Z)-4-chloro-3-methyl-5-(propan-2-yl)-2,3-dihydro-1,3-thiazol-2-ylidene]-2-hydroxybenzene-1-sulfonamide] | 6.80 | –
32 | Cc1cc(C#N)cc(C(=O)c2cc(Cl)ccc2OCC(=O)Nc2ccc(S(N)(=O)=O)nc2C)c1 | 8.22 | –
33 | CCc1s/c(=N\S(=O)(=O)c2cccc([N+](=O)[O-])c2)n(C)c1C [N-[(2Z)-5-ethyl-3,4-dimethyl-2,3-dihydro-1,3-thiazol-2-ylidene]-3-nitrobenzene-1-sulfonamide] | 5.20 | –
34 | Cc1cc(NC(=O)CCN2CCOCC2)ccc1NC(=O)COc1ccc(Cl)cc1C(=O)c1cc(F)cc(F)c1 | 8.05 | –
35 | Cc1nc(S(N)(=O)=O)ccc1NC(=O)COc1ccc(Cl)cc1C(=O)c1cc(Cl)cc(C#N)c1 | 8.52 | –
36 | COc1ccc(NC(=O)COc2ccc(Cl)cc2C(=O)c2cc(F)cc(F)c2)cn1 | 7.14 | –
37 | CC(C)c1s/c(=N\S(=O)(=O)c2cc(Br)ccc2O)n(C)c1Cl [5-bromo-N-[(2Z)-4-chloro-3-methyl-5-(propan-2-yl)-2,3-dihydro-1,3-thiazol-2-ylidene]-2-hydroxybenzene-1-sulfonamide] | 7.40 | –
38 | COCCOCCOc1ccc(NC(=O)COc2ccc(Cl)cc2C(=O)c2cc(F)cc(C(F)(F)F)c2)c(C)c1 | 7.80 | –
39 | Cc1c(C(C)C)s/c(=N\S(=O)(=O)c2cc(Cl)ccc2C#N)n1C [5-chloro-2-cyano-N-[(2Z)-3,4-dimethyl-5-(propan-2-yl)-2,3-dihydro-1,3-thiazol-2-ylidene]benzene-1-sulfonamide] | 5.20 | –
40 | Cc1cc(C#N)cc(C(=O)c2cc(Cl)ccc2OCC(=O)Nc2ncc(S(N)(=O)=O)cc2C)c1 | 7.03 | –
41 | O=C(COc1ccc(Cl)cc1C(=O)c1cc(F)cc(F)c1)Nc1ccc(Cl)nc1 | 7.17 | –
42 | Cc1c(C(C)(C)C)s/c(=N\S(=O)(=O)c2cc(Cl)ccc2O)n1C [N-(5-tert-Butyl-3,4-dimethyl-1,3-thiazol-2(3H)-ylidene)-5-chloro-2-hydroxybenzenesulfonamide] | 6.00 | –
43 | Cc1cc(C#N)cc(C(=O)c2cc(Cl)ccc2OCC(=O)Nc2cnc(S(N)(=O)=O)cc2C)c1 | 8.15 | –
44 | Cc1c(C(C)(C)C)s/c(=N\S(=O)(=O)c2cccc(Cl)c2)n1C [N-[(2Z)-5-tert-butyl-3,4-dimethyl-2,3-dihydro-1,3-thiazol-2-ylidene]-3-chlorobenzene-1-sulfonamide] | 5.00 | –
45 | COc1cc(OC)cc(C(=O)c2cc(Cl)ccc2OCC(=O)Nc2ccc(S(N)(=O)=O)cc2C)c1 | 6.43 | –
46 | Cc1cc(N2CC[S+]([O-])CC2)ccc1NC(=O)COc1ccc(Cl)cc1C(=O)c1cccc(C#N)c1 | 8.30 | –
47 | Cc1[nH]/c(=N/S(=O)(=O)c2cccc([N+](=O)[O-])c2)sc1C(C)(C)C | 4.49 | –
48 | CC(C)c1s/c(=N\S(=O)(=O)c2cc(C#N)ccc2C#N)n(C)c1Cl [N-(4-Chloro-5-isopropyl-3-methyl-1,3-thiazol-2(3H)-ylidene)-2,5-dicyanobenzenesulfonamide] | 5.52 | –
49 | Cc1c(C(C)C)s/c(=N\S(=O)(=O)c2cc(Br)ccc2C#N)n1C [5-Bromo-2-cyano-N-(5-isopropyl-3,4-dimethyl-1,3-thiazol-2(3H)-ylidene)benzenesulfonamide] | 5.40 | –
50 | Cc1cc(N2CC[S+]([O-])CC2)ccc1NC(=O)COc1ccc(Cl)cc1C(=O)c1ccccc1 | 7.00 | –
